Like-named read-outs stand apart in the source and are kept apart here.
Experiments:
[1] = Glucuronidation / depletion kinetics in human liver microsomes (UHPLC); type: in vitro ADME; details: for half-life at 10 μM: female, pooled human liver microsomes, alamethicin-activated, 10 μM compound, 0.1 mg/mL human liver microsomes, 5 mM UDPGA, 37°C, one-phase exponential decay, read-out: half-life (t1/2); for metabolic stability relative to luteolin: human hepatic microsomes, glucuronidation by UGT enzymes
Procedure: Pooled female human liver microsomes (n = 10) were purchased from XenoTech (Lenexa, US) and stored at −80°C and rapidly thawed before use. The microsomes, 0.1 mg/mL, were activated by incubation with alamethicin (Santa Cruz Biotechnology, US), 50 μg/mL microsomal protein, in 0.1 M sodium phosphate buffer using a VWR Mini Shaker (Radnor, US) at 37°C and 550 rpm for 10 min. Luteolin, 7-Cl-Lut or 7-MeO-Lut was added to give a final concentration of 10 μM and 5% DMSO, and these were pre-incubated with the activated microsomes for 5 min at 37°C and shaking at 550 rpm. The reaction was initiated by addition of 5 mM uridine 5’-diphosphoglucuronic acid, (Santa Cruz Biotechnology, US). The incubation time ranged from 0 min to 5 h. The reactions were quenched by flash freezing and stored at −80°C. The microsomes were heat inactivated using a VWR UnoCycler (Radnor, US) for 5 min at 95°C. All experiments were repeated three times.
In order to calculate depletion kinetics, the percentage of the remaining drug was calculated by comparison with the initial quantity at 0 min. The half-life (t1/2) of luteolin, 7-Cl-Lut and 7-MeO-Lut was calculated using GraphPad Prism (GraphPad Software, Inc., US, version 5.0). Data were fitted to one-phase exponential decay: C=C0*exp(-K*t) (1) The half-life(t1/2)=0.693/K (2)
Microsome-treated samples were diluted in 50% DMSO. Analytical HPLC was performed using a Nexera UHPLC system (Shimadzu, US) connected to a diode array detector (SPP M20A). Samples were analyzed using a Nucleodur C18 HTec column (EC 150 × 4.6, 5 μm, Macherey-Nagel) with a flow rate of 1 mL/min. Aliquots of 20 μL of each sample were injected, and detection was performed at 345 nm. The mobile phase was composed of solvent A (H2O in 0.1% TFA) and solvent B (acetonitrile in 0.1% TFA). The binary gradient profile was as follows with solvent B as the reference: 0–2.5 min, 17% B; 2.5–7.5 min, 17–25% B; 7.5–15.5 min, 25–35% B; 15.5–20.5 min, 35–50% B; 20.5–25.5 min, 50–100% B; 25.5–30.5 min, 100% B; 30.5–31 min, 100–17% B; 31–35.5 min, 17% B. Before first injection, the column was equilibrated at 17% B for 5 min.
The metabolization of luteolin, 7-Cl-Lut and 7-MeO-Lut by the microsomes can be followed by the decrease in the substrate concentration over time. The data shown in Fig 7 were fitted to a single-component exponential decay model and the half-lives were determined using Eqs (1) and (2). Luteolin was metabolized about 3-fold faster than 7-Cl-Lut with half-lives of 16 ± 1 min and 52 ± 7 min, respectively.
Fig 7 Depletion profile of 10 μM luteolin (triangle), 7-Cl-Lut (square) and 7-MeO-Lut (diamond) after incubation in the presence of 0.1 mg/mL human liver microsomes for various times. Each time point represents the average of three independent samples (mean ± SD) acquired through plotting the integral of the corresponding peaks from the UHPLC analysis.

TTR in human plasma = biological target: T1, TTR in human plasma (Homo sapiens, UniProt P02766); assay: Urea-mediated denaturation gel-shift assay of TTR stabilization in human plasma (western blot of monomers); type: biochemical; details: for IC50: 4 M urea, 18 h, 20°C, densitometry of the monomeric band, read-out: IC50 (half maximal inhibitory concentration of TTR dissociation into monomers); for stoichiometric excess relative to TTR in human plasma to achieve the same stabilizing effect as luteolin: TTR assumed 5 μM
T1 construct: Human plasma from a healthy donor; from tissue; host or cells: human plasma (healthy donor)
Procedure: We have recently developed an assay in which the relative stability as a function of drug concentration can be evaluated in complex solutions [21]. TTR is found within the human plasma, and it is thus of interest to analyze drug efficacy in TTR’s natural environment. The analysis was performed as described previously with some modifications. Human plasma from a healthy donor was centrifuged at 20,000 × g for 10 min. The plasma was filtered using a 0.45 μm syringe filter (Filtropur S, Nümbrecht, Germany). A solution of 1 M sodium phosphate buffer at pH 7.0 was added to a final concentration of 40 mM. […] The reactions were incubated for 2 h at 20°C. Denaturation was initiated by addition of 4 M urea, 40 mM sodium phosphate buffer pH 7.4, and 150 mM NaCl. The samples were incubated for 18 h at 20°C followed by separation by gel electrophoresis using tricine-based SDS-PAGE with 0.025% SDS in the running buffer and 0.2% SDS in the loading buffer. […] Gel electrophoresis was followed by western blotting using rabbit anti-TTR antibody (anti-prealbumin, DAKO, Denmark) followed by a horseradish peroxidase-labeled antibody (anti-rabbit HRP, GE Healthcare, Sweden). Blocking of nonspecific binding on the membrane and incubation of the antibodies were performed in 5% fat-free powdered milk containing 0.3% Tween-20. All washing steps were performed in 40 mM Tris, 150 mM NaCl, and 0.3% Tween-20. Bound antibodies were visualized on photographic film using enhanced chemiluminescence (ECL-prime, GE Healthcare, UK). […] The presence of monomers on the photographic film was quantified through a densitometric analysis using the ImageJ 1.48 software (National Institutes of Health, […], US), which also ensured that all analyses were performed within a linear range. The plasma concentration of TTR is approximately 5 μM [38], and this implies that a drug must be present at ≥5 μM to work effectively as a stabilizer. Here we used a recently developed urea-mediated denaturation assay to determine the drug concentration needed in plasma to obtain the half maximal inhibitory concentration (IC50). In the experiment, the dissociation of TTR into monomers is monitored by the appearance of a monomeric band on a western blot (Fig 8). The fraction of denaturation was quantified by densitometric analysis using ImageJ 1.48 software. […] Fig 8 Determination of IC50 for luteolin, 7-Cl-Lut and 7-MeO-Lut in human plasma. The drug’s ability to selectively stabilize TTR in plasma was evaluated using a urea denaturation assay. The dissociation of the TTR tetramer is indicated by the presence of a monomeric TTR band on a western blot. (A) Gel-shift assay of various concentrations of luteolin in human plasma. […] (C) Gel-shift assay of various concentrations of 7-MeO-Lut in human plasma.

TTR [2] = biological target: T2, TTR (Homo sapiens, UniProt P02766); assay: Microscale thermophoresis (MST) binding to NT-647-labelled TTR; details: 300 nM NT-647-labelled TTR, PBS, 5% DMSO, mean ± S.E.M. of three measurements, read-out: dissociation constant (Kd)
T2 construct: Expression of TTR was performed as described previously; made in house; host or cells: Escherichia coli BL21
Procedure: We used MST to measure the affinity between the different ligands and TTR. TTR was labelled with the Monolith NT protein labelling kit (Nanotemper Technologies, Germany) using the sulfhydryl-reactive red fluorescent dye NT-647 Maleimide according to the manufacturer’s instructions. Labelled TTR was kept at a constant concentration of 300 nM, and luteolin, 7-Cl-Lut and 7-MeO-Lut were serially diluted yielding 13, 16 and 12 respectively different concentrations ranging from 0.24 nM to 1 μM for luteolin, 0.24 nM to 8 μM for 7-Cl-Lut, and 0.61 nM to 1.25 μM for 7-MeO-Lut. Experiments were carried out in phosphate-buffered saline and 5% DMSO with a Monolith NT.115 instrument using standard-treated capillaries (Nanotemper Technologies, Germany). Fluorescence was detected for 5 s, and the laser was switched on for 30 s followed by fluorescence detection for another 5 s. The delay time between runs was set to 25 s. The LED power and the MST were set to 80% for all drugs. Kd values were determined using NTanalysis software (NanoTemper Technologies, Germany) by fitting the data representing the mean ± S.E.M. from three independent measurements to the Kd fit model.
In order to obtain binding affinities between the drugs and TTR, we employed microscale thermophoresis (MST), which is a technique based on the directed movement of molecules in a temperature gradient. This phenomenon depends on a variety of molecular properties such as size, charge, hydration shell, and conformation. The dissociation constant (Kd) for luteolin was determined to be 150 ± 70 nM, which is in accordance with the previously published value of 100 nM determined by isothermal titration calorimetry (Fig 3A).
Fig 3 Binding of luteolin, 7-Cl-Lut and 7-MeO-Lut to NT-647–labeled TTR. Various concentrations of the compounds were titrated against 300 nM of NT-647–labeled TTR. Kd values were determined by averaging three independent experiments (mean ± S.E.M.) using the NT analysis software. The thermophoresis signal was plotted against luteolin (A), 7-Cl-Lut (B) and 7-MeO-Lut (C) concentrations.

TTR [3] = biological target: T2, TTR; parameters: method as in ref 49 = [49]; PMID 22842046; doi:10.1016/j.jsb.2012.07.008; 49 Trivella DB , dos Reis CV , Lima LM , Foguel D , Polikarpov I ( 2012 ) Flavonoid interactions with human transthyretin: combined structural and thermodynamic analysis . J Struct Biol 180 : 143 – 15; details: binding to TTR; cited from earlier work
TTR [4] = biological target: T2, TTR; parameters: method as in ref 37 = [37]; PMID 22842046; doi:10.1016/j.jsb.2012.07.008; 37 Trivella DBB , dos Reis CV , Lima LMTR , Foguel D , Polikarpov I ( 2012 ) Flavonoid interactions with human transthyretin: Combined structural and thermodynamic analysis . Journal of Structural Bio; details: isothermal titration calorimetry; read-out: Kd, previously published value; cited from earlier work
[5] = parameters: method as in PMID 23556338; details: in vivo persistence against metabolic activity; cited from earlier work

O=c1cc(-c2ccc(O)c(O)c2)oc2cc(Cl)cc(O)c12 [7-Cl-Lut, 2-(3,4-dihydroxyphenyl)-5-hydroxy-7-chloro-4H-1-benzopyran-4-one]
half-life at 10 μM [1]: 52 ± 7 min
metabolic stability relative to luteolin [1]: approximately 3 fold
IC50 (TTR in human plasma): ~65 µM
stoichiometric excess relative to TTR in human plasma to achieve the same stabilizing effect as luteolin (TTR in human plasma): 13 fold
Kd (TTR [2]): 0.62 ± 0.15 µM

COc1cc(O)c2c(=O)cc(-c3ccc(O)c(O)c3)oc2c1 [7-MeO-Lut, 2-(3,4-dihydroxyphenyl)-5-hydroxy-7-methoxy-4H-1-benzopyran-4-one]
half-life at 10 μM [1]: 36 ± 8 min
metabolic stability relative to luteolin [1]: doubled
IC50 (TTR in human plasma): ~105 µM
stoichiometric excess relative to TTR in human plasma to achieve the same stabilizing effect as luteolin (TTR in human plasma): 21 fold
Kd (TTR [2]): 0.39 ± 0.04 µM

O=c1cc(-c2ccc(O)cc2)oc2cc(O)cc(O)c12 [apigenin]
times lower affinity compared to luteolin (TTR [3]): 5 times

O=c1cc(-c2ccccc2)oc2cc(O)cc(O)c12 [chrysin]
times lower affinity compared to luteolin (TTR [3]): 17 times

O=c1cc(-c2ccc(O)c(O)c2)oc2cc(O)cc(O)c12 [luteolin]
half-life at 10 μM [1]: 16 ± 1 min
Kd (TTR [4]): 0.1 µM
IC50 (TTR in human plasma): ~5 µM
half-life [5]: around 8 hours
Kd (TTR [2]): 0.15 ± 0.07 µM
